In patent publication US6812025B2, “Two hybrid assay that detects HIV-1 reverse transcriptase dimerization” (priority 2000, dated 2004):

How the values were obtained:
p66-His and GST-p51 = p66-His and GST-p51 (Human immunodeficiency virus type 1 group M subtype B, UniProt P04585); type: binding, HIV-1; conditions: for enhancement of dimerization of GST-p51 and p66-His in vitro: bacterial lysates, 1-1000 fold molar excess of drug, overnight
Method: Cells were induced and then lysed by the addition of 1 mg/ml of lysozyme to 1 ml of lysis buffer [50 mM sodium phosphate buffer (pH 7.8), 500 mM NaCl, 0.5% Nonidet P-40, 5 mM DTT, and 1 μg/ml each of pepstatin A, aprotinin and leupeptin] and clarified. Lysates were combined and incubated for 16 hrs at 4° C. The heterodimer was captured on Glutathione Sepharose 4B beads and unbound subunits were removed by washing with lysis buffer. Heterodimer bound to beads were resolved by SDS/PAGE. For quantification of RT activity, dimers were eluted from beads with 10 mM reduced glutathione in 50 mM Tris (pH 8.0). Samples were assayed for DNA polymerase activity on homopolymeric template-primers for various times, and the activity was determined from the initial slope of the linear phase of the time course.

p66/p51 heterodimer [1] = target: T1, p66/p51 heterodimer (Human immunodeficiency virus type 1 group M subtype B, UniProt P12497); assay: Y2H system, preliminary tests of TSAO on heterodimerization; type: cell-based, HIV-1; conditions: data not shown
T1 construct: The enzyme is a heterodimer of p66 and p51 subunits
Method: (§1) Transformation of yeast and the qualitative β-galactosidase (β-gal) colony lift assay were as published (19). Quantification of protein-protein interactions was determined using the β-gal liquid assay performed on permeabilized yeast grown from three independent transformants using orthonitrophenyl-β-D-galactopyranoside as substrate (19).
To date, there are no HIV-1 RT dimerization inhibitors being used in the clinic. Nevertheless, there are several reports of HIV-1 and HIV-2 RT dimerization inhibitors based on peptides representing the conserved tryptophan repeat region of RT (32, 37). […] However, the possibility that the drug is not taken up by yeast cannot be ruled out. The availability of a Y2H assay for RT dimerization will facilitate the screening for other such inhibitors of this process according to the methods set forth herein.

p66/p51 heterodimer [2] = target: T1, p66/p51 heterodimer; conditions: cited from earlier work
[3] = target: p66 and p51 subunits of the HIV-1 RT (Human immunodeficiency virus type 1 group M subtype B, UniProt P12497); assay: Y2H RT heterodimerization assay measuring effect of NNRTIs on b-gal activity (wild-type lexA87-66 + Gal4AD-51); type: cell-based; conditions: for enhancement of b-gal activity (relative potency): yeast expressing lexA87-66 and Gal4AD-51, drug added to culture medium
Method: as §1
Yeast and bacterial strains were as described previously (22). Transformation of yeast, the qualitative b-gal colony lift assay and the quantitative b-gal liquid assay were as previously described (22).
CTY10-5d transformed constructs expressing p66 bait and p51 prey fusions were grown overnight to stationary phase in synthetic complete medium without histidine and leucine and containing 2% glucose (SC-His-Leu). […] Yeast were grown with aeration at 30° C. to OD600=0.5. The equivalent of 1 OD600 unit was pelleted for each treatment and subjected to a quantitative b-gal liquid assay.
To test the effects of NNRTIs on the association of the RT polypeptides we used a yeast genetic assay that measures RT heterodimerization (22). […] To test for the effects of the NNRTIs on this interaction, 10 drugs representing 7 different NNRTI classes were added to the culture medium during growth of the yeast and b-gal levels were determined.

HIV-1 = conditions: cited from earlier work
HIV-1 RT = HIV-1 RT (Human immunodeficiency virus type 1 group M subtype B, UniProt P12497); assay: Exogenous RT assay (RT inhibitory activity); type: biochemical; conditions: results not shown
RT heterodimer = target: T2, RT heterodimer (Human immunodeficiency virus type 1 group M subtype B, UniProt P12497); conditions: cited from earlier work
T2 construct: The enzyme is a heterodimer of p66 and p51 subunits

[4] = target: T3, lexA87-66L234A and Gal4AD-HA-51L234A (Human immunodeficiency virus type 1 group M subtype B, UniProt P04585, L821A); type: cell-based, HIV-1; conditions: yeast grown in efavirenz (1.6 μM) or UC781 (16 μM), compared to no drug
T3 construct: Yeast expressing p66 bait and p51 prey fusions containing the L234A mutation; expressed in transfected cells; host or cells: Saccharomyces cerevisiae CTY10-5d
Description: Samples were resolved by SDS-PAGE. The leXA87-66 fusion protein was probed using monoclonal antibodies 7E5 which specifically detects p66 (31).
Hemagglutinin (HA) antibodies were used to immunoprecipitate the p51 prey and the presence of any bound p66 bait was then detected using anti-p66 specific antibodies. For coimmunoprecipitation of the p66 bait fusions, samples were divided into two with one part processed without added NNRTI while the other was maintained in drug at the same concentration used during growth of yeast.

lexA87 and Gal4AD = target: T4, lexA87 and Gal4AD (UniProt P04386+P0A7C2); assay: Y2H specificity control, empty vectors pSH2-1 and pGADNOT; type: cell-based; conditions: serial dilutions, up to 15 μM of drug; data not shown
T4 construct: expressed in transfected cells; host or cells: Saccharomyces cerevisiae (yeast reporter strain)
T4 sequence (P0A7C2 1-87): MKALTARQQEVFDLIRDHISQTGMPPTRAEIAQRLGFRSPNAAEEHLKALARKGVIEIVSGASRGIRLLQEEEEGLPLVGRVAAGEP
T4 sequence (P04386 768-881): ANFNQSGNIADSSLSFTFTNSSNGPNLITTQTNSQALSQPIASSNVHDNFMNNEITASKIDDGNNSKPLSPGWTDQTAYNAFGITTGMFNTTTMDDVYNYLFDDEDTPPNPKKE
Description: The specificity of the b-gal enhancement by NNRTIs was investigated. […].

Compound: 2′, 5′-bis-O-(tert-butylidimethylsilyl)-3′-spiro-5″-4″-amino-1′, 2″-oxothiole-2″,2″-dioxide)]-b-D-pentofuranosyl [TSAO]
- effect on heterodimerization in in vitro binding assays (p66-His and GST-p51; preliminary tests, data not shown): reduce heterodimerization
- effect on β-gal activity in the Y2H system (p66/p51 heterodimer [1]): no inhibition of β-gal activity
- destabilization of the p66/p51 heterodimer (p66/p51 heterodimer [2]): destabilize the p66/p51 heterodimer

Compound: COc1ccc2c(c1)N(C(=O)OC(C)C)[C@@H](CSC)C(=S)N2 [HBY 097]
- enhancement of b-gal activity (relative potency) [3]: most potent
- inhibition of HIV-1 replication in vitro (HIV-1): extremely potent inhibitors of HIV-1 replication in vitro

Compound: CCn1c(=O)c(C)cn([C@@H]2O[C@H](CO[Si](C)(C)C(C)(C)C)C3(OS(=O)(=O)C=C3N)[C@H]2O[Si](C)(C)C(C)(C)C)c1=O (stereo partly drawn) [TSAOe^3T]
- destabilization of the p66/p51 heterodimer (p66/p51 heterodimer [2]): more modest destabilization only detectable in the presence of denaturants

Compound: Cc1occc1C(=S)Nc1ccc(Cl)c(/C=N/OC(C)(C)C)c1 [UC10]
- enhancement of dimerization of GST-p51 and p66-His in vitro (p66-His and GST-p51): poor dimerization inducers

Compound: CC(C)OC(=O)c1cc(NC(=S)OC(C)C)ccc1Cl [UC38]
- RT inhibitory activity (50% inhibitory concentration), rank (HIV-1 RT): least active
- concentration of drug that mediates a 5-fold increase in b-gal activity (rank) ([3]; results not shown): least active

Compound: CC(C)=CCOc1cc(NC(=S)c2ccoc2C)ccc1Cl [UC781]
- binding to the RT heterodimer (RT heterodimer): bind very tightly
- dissociation rates (koff) (RT heterodimer): very slow dissociation rates
- enhancement of dimerization of GST-p51 and p66-His in vitro (p66-His and GST-p51): poor dimerization inducers
- enhancement of b-gal activity (relative potency) [3]: second most potent
- inhibition of HIV-1 replication in vitro (HIV-1): extremely potent inhibitors of HIV-1 replication in vitro
- amount of p66 bait coimmunoprecipitated with p51 prey (heterodimer formation), L234A [4]: not for the L234A mutant

Compound: CC(C)Nc1cccnc1N1CCN(C(=O)c2cc3cc(NS(C)(=O)=O)ccc3[nH]2)CC1 [delavirdine]
- enhancement of dimerization of GST-p51 and p66-His in vitro (p66-His and GST-p51): inactive in vitro
- enhancement of b-gal activity (relative potency) [3]: devoid of b-gal enhancing activity

Compound: O=C1Nc2ccc(Cl)cc2[C@@](C#CC2CC2)(C(F)(F)F)O1 [efavirenz]
- b-gal activity with empty vectors (lexA87 and Gal4AD): no increase in b-gal activity
